# Target: T1, human glucagon receptor (Homo sapiens, UniProt P47871)
# T1 construct: expressed in transfected cells; host or cells: BHK (baby hamster kidney) cells
# Assay: Glucagon Binding Assay (III)
# Conditions: BHK cell membranes, WGA SPA beads, 125I-glucagon; read-out: Glu Bd Assay (III) IC50
# Procedure, shortened: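 Non-specific binding was set with 500 nM glucagon in this SPA-type binding assay using WGA beads. The receptor source was a membrane preparation, kept on ice or at 4 °C, from BHK cells transfected with the human receptor. Scintillation counts were taken after 4 hours of shaking and 8–48 hours of settling.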
# T1 sequence (P47871 26-477): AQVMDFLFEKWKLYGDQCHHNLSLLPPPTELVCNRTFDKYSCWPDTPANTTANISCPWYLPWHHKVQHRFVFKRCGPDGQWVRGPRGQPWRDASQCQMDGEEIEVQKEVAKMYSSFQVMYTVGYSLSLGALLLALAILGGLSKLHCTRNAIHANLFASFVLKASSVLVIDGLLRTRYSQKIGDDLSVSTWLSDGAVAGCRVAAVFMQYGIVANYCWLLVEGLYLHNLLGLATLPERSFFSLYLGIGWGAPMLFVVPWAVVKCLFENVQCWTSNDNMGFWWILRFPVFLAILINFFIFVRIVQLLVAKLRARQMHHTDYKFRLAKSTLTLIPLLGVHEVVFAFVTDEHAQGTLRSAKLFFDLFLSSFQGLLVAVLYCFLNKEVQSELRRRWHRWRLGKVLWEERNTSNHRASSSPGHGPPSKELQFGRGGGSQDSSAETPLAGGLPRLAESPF
row,SMILES,IC50 [nM]
1,"CCCCC(CC)CN(Cc1ccc(C(=O)NCCC(=O)O)cc1)C(=O)Nc1ccc(SC)cc1 (stereo not drawn) [Example 41, 3-{4-[1-(2-Ethylhexyl)-3-(4-methylsulfanylphenyl)ureidomethyl]benzoylamino}propionic acid]",299
2,"CC(C)N1C(=O)c2ccc(NC(=O)N(Cc3ccc(C(=O)NCCC(=O)O)cc3)c3ccc(C4CCCCC4)cc3)cc2C1=O [Example 631, 3-{4-[1-(4-Cyclohexyl-phenyl)-3-(N′-isopropylphthalimid-4-yl)ureidomethyl]benzoylamino}propionic acid]",23
3,O=C(Nc1nn[nH]n1)c1ccc(CN(C(=O)Nc2ccc(OC(F)(F)F)c(CO)c2)c2ccc(C3CCCCC3)cc2)cc1 [Example 568],13
4,"CC(C)(C)[C@H]1CC[C@H](N(Cc2ccc(C(=O)NCCC(=O)O)cc2)C(=O)Nc2ccc(Cl)cc2Cl)CC1 [Example 35, 3-{4-[1-(4-trans-tert-Butylcyclohexyl)-3-(2,4-dichlorophenyl)ureidomethyl]benzoylamino}propionic acid]",352
5,"O=C(O)CCNC(=O)c1ccc(CN(C(=O)Nc2cc(C(F)(F)F)cc(C(F)(F)F)c2)C2CCC3(CCCCC3)CC2)cc1 [Example 614, 3-{4-[3-(3,5-Bis(trifluoromethyl)phenyl)-1-spiro[5.5]undec-3-ylureidomethyl]benzoylamino}propionic acid]",129
6,"COC(=O)CCNC(=O)c1ccc(CN(C(=O)Nc2ccc(OC(F)(F)F)cc2)[C@H]2CC[C@H](C(C)(C)C)CC2)cc1 [Example 98, 3-{4-[1-(trans-4-tert-Butylcyclohexyl)-3-(4-trifluoromethoxyphenyl)ureidomethyl]benzoylamino}propionic acid methyl ester]",83
7,"CCCCc1ccc(N(Cc2ccc(C(=O)Nc3nn[nH]n3)cc2)C(=O)Nc2cccc(S(C)(=O)=O)c2)cc1 [Example 447, 4-[1-(4-Butylphenyl)-3-(3-methylsulfonylphenyl)ureidomethyl]-N-(2H-tetrazol-5-yl)benzamide]",327
8,"CC(C)c1ccc(NC(=O)N(Cc2ccc(C(=O)NCCC(=O)O)cc2)C2CC3CC(C2C)C3(C)C)cc1 (stereo not drawn) [Example 66, 3-{4-[3-(4-Isopropylphenyl)-1-(2,6,6-trimethylbicyclo[3.1.1]hept-3-yl)ureidomethyl]benzoylamino}propionic acid]",267
9,"Cc1cc(NC(=O)N(Cc2ccc(C(=O)Nc3nn[nH]n3)cc2)c2ccc(C3=CCCCC3)cc2)cc(C(F)(F)F)c1 [Example 362, 4-[1-(4-Cyclohex-1-enylphenyl)-3-(3-methyl-5-trifluoromethylphenyl)ureidomethyl]-N-(2H-tetrazol-5-yl)benzamide]",13
10,"CC(C)(C)c1ccc(N(Cc2ccc(C(=O)Nc3nn[nH]n3)cc2)C(=O)Nc2ccc(OC(F)(F)F)cc2)cc1 [Example 374, 4-[1-(4-tert-Butylphenyl)-3-(4-trifluoromethoxyphenyl)ureidomethyl]-N-(2H-tetrazol-5-yl)benzamide]",10
11,"CCCc1ccc(N(Cc2ccc(C(=O)NCCC(=O)O)cc2)C(=O)Nc2ccc(OC(F)(F)F)cc2)cc1 [Example 439, 3-{4-[1-(4-Propylphenyl)-3-(4-trifluoromethoxyphenyl)ureidomethyl]benzoylamino}propionic acid]",184
12,"CC(C)(C)C1CCC(N(Cc2ccc(C(=O)Nc3nn[nH]n3)cc2)C(=O)Cc2ccc(OC(F)(F)F)cc2)CC1 (stereo not drawn) [Example 502, 4-({(4-tert-Butylcyclohexyl)-[2-(4-trifluoromethoxyphenyl)acetyl]amino}methyl)-N-(2H-tetrazol-5-yl)benzamide]",28
13,"O=C(O)CCNC(=O)c1ccc(CN(C(=O)Nc2ccc(OC(F)(F)F)cc2)C2CCC3CCCCC3C2)cc1 (stereo not drawn) [Example 79, 3-{4-[1-(Decahydronaphthalen-2-yl)-3-(4-trifluoromethoxyphenyl)ureidomethyl]benzoylamino}propionic acid]",200
14,"O=C(O)CCNC(=O)c1ccc(CN(Cc2ccccc2Cl)C(=O)Nc2ccc(OC(F)(F)F)cc2)cc1 [Example 431, 3-{4-[1-(2-Chlorobenzyl)-3-(4-trifluoromethoxyphenyl)ureidomethyl]benzoylamino}propionic acid]",2910
15,"CS(=O)(=O)c1ccccc1NC(=O)N(Cc1ccc(C(=O)Nc2nn[nH]n2)cc1)c1ccc(C2CCCCC2)cc1 [Example 466, 4-[1-(4-Cyclohexylphenyl)-3-(2-methylsulfonylphenyl)ureidomethyl]-N-(2H-tetrazol-5-yl)benzamide]",2670
16,"O=C(O)CCNC(=O)c1ccc(CN(C(=O)Nc2ccc(OC(F)(F)F)cc2)[C@H]2CC[C@H](OC(=O)Nc3ccc(OC(F)(F)F)cc3)CC2)cc1 [Example 97, 3-{4-[1-(trans-4-(4-Trifluoromethoxyphenylcarbamoyloxy)cyclohexyl)-3-(4-trifluoromethoxyphenyl)ureidomethyl]benzoylamino}propionic acid]",1650
17,"CCCCc1ccc(N(Cc2ccc(C(=O)Nc3nn[nH]n3)cc2)C(=O)Nc2ccc(OC(F)(F)F)cc2)cc1 [Example 292, 4-[1-(4-Butylphenyl)-3-(4-trifluoromethoxyphenyl)ureidomethyl]-N-(2H-tetrazol-5-yl)benzamide]",106

row,SMILES,IC50 [nM]
1,"O=C(Nc1nn[nH]n1)c1ccc(CN(C(=O)NCc2cc(F)cc(C(F)(F)F)c2)c2ccc(C3CCCCC3)cc2)cc1 [Example 270, 4-[1-(4-Cyclohexylphenyl)-3-(3-fluoro-5-trifluoromethylbenzyl)ureidomethyl]-N-(2H-tetrazol-5-yl)benzamide]",64
2,"CC(C)(C)C1CCC(N(Cc2ccc(C(=O)NCCC(=O)O)cc2)C(=O)Nc2ccc(F)c(C(F)(F)F)c2)CC1 (stereo not drawn) [Example 71, 3-{4-[1-(4-tert-Butylcyclohexyl)-3-(4-fluoro-3-trifluoromethylphenyl)ureidomethyl]benzoylamino}propionic acid]",124
3,"CCCCC(CC)CN(Cc1ccc(C(=O)NCCC(=O)O)cc1)C(=O)Nc1ccc(OC(F)(F)F)cc1 (stereo not drawn) [Example 96, 3-{4-[1-(2-Ethylhexyl)-3-(4-trifluoromethoxyphenyl)ureidomethyl]benzoylamino}propionic acid]",137
4,"CC(C)(C)c1ccc(N(Cc2ccc(C(=O)Nc3nn[nH]n3)cc2)C(=O)Nc2ccc(Cl)c(C(F)(F)F)c2)cc1 [Example 331, 4-[1-(4-tert-Butylphenyl)-3-(4-chloro-3-trifluoromethylphenyl)ureidomethyl]-N-(2H-tetrazol-5-yl)benzamide]",30
5,"CC(C)(C)C1CCC(N(Cc2ccc(C(=O)NCCC(=O)O)cc2)C(=O)c2cc3cc(Cl)ccc3o2)CC1 (stereo not drawn) [Example 562, 3-(4-{[(4-tert-Butylcyclohexyl)-(5-chlorobenzofuran-2-carbonyl)amino]methyl}benzoylamino)propionic acid]",146
6,"CC(O)c1cccc(NC(=O)N(Cc2ccc(C(=O)Nc3nn[nH]n3)cc2)c2ccc(C(C)(C)C)cc2)c1 (stereo not drawn) [Example 309, 4-{1-(4-tert-Butylphenyl)-3-[3-(1-hydroxyethyl)phenyl]ureidomethyl}-N-(2H-tetrazol-5-yl)benzamide]",566
7,"CC1CCC(N(Cc2ccc(C(=O)NCCC(=O)O)cc2)C(=O)Nc2ccc(OCc3ccccc3)cc2)CC1 (stereo not drawn) [Example 45, 3-{4-[3-(4-Benzyloxyphenyl)-1-(4-methylcyclohexyl)ureidomethyl]benzoylamino}propionic acid]",1190
8,"O=C(O)CCNC(=O)c1ccc(CN(C(=O)Nc2ccc(OC(F)(F)F)cc2)c2ccc(N3CCCCC3)cc2)cc1 [Example 434, 3-{4-[1-(4-Piperidin-1-ylphenyl)-3-(4-trifluoromethoxyphenyl)ureidomethyl]benzoylamino}propionic acid]",126
9,"CCCCc1ccc(N(Cc2ccc(C(=O)Nc3nn[nH]n3)cc2)C(=O)Nc2cccc(C#N)c2)cc1 [Example 281, 4-[1-(4-Butylphenyl)-3-(3-cyanophenyl)ureidomethyl]-N-(2H-tetrazol-5-yl)benzamide]",185
10,"CC(C)(C)C1CCC(N(Cc2ccc(C(=O)NCCC(=O)O)cc2)C(=O)Nc2ccc(Cl)c(Cl)c2)CC1 (stereo not drawn) [Example 16, 3-{4-[1-(4-tert-Butylcyclohexyl)-3-(3,4-dichlorophenyl)ureidomethyl]benzoylamino}propionic acid]",39
11,"CCCCN1C(=O)c2ccc(NC(=O)N(Cc3ccc(C(=O)NCCC(=O)O)cc3)c3ccc(C4CCCCC4)cc3)cc2C1=O [Example 635, 3-{4-[3-(N′-Butylphthalimid-4-yl)-1-(4-cyclohexylphenyl)ureidomethyl]benzoylamino}propionic acid]",18
12,O=C(O)CCNC(=O)c1ccc(CN(C(=O)NCc2ccccc2-c2ccccc2)[C@H]2CC[C@H](C3CCCCC3)CC2)cc1 [Example 391],21
13,"CC(C)(C)C1CCC(N(Cc2ccc(C(=O)NCCC(=O)O)cc2)C(=O)Oc2cc(C(F)(F)F)cc(C(F)(F)F)c2)CC1 (stereo not drawn) [Example 403, 3-(4-{[(3,5-Bis(trifluoromethyl)phenoxycarbonyl)-(4-tert-butylcyclohexyl)amino]methyl}benzoylamino)propionic acid]",338
14,"O=C(O)CCNC(=O)c1ccc(CN(C(=O)c2cccc(C(F)(F)F)c2)c2ccc(C3CCCCC3)cc2)cc1 [Example 524, 3-(4-{[(4-Cyclohexylphenyl)-(3-trifluoromethylbenzoyl)amino]methyl}benzoylamino)propionic acid]",293
15,"O=C(O)CCNC(=O)c1ccc(CN(CC(c2ccccc2)c2ccccc2)C(=O)Cc2ccc(OC(F)(F)F)cc2)cc1 [Example 504, 3-[4-({(2,2-Diphenylethyl)-[2-(4-trifluoromethoxyphenyl)acetyl]amino}methyl)benzoylamino]propionic acid]",235
16,"O=C(Nc1nn[nH]n1)c1ccc(CN(CC(c2ccccc2)c2ccccc2)C(=O)Cc2cccc(OC(F)(F)F)c2)cc1 [Example 529, 4-({(2,2-Diphenylethyl)-[2-(3-trifluoromethoxyphenyl)acetyl]amino}methyl)-N-(2H-tetrazol-5-yl)benzamide]",470
